Measured values from US12171230B2, “Herbicidal compositions” (Bayer Aktiengesellschaft, priority 2018, dated 2024).
Where “and” joins values, the source holds several entries; their conditions need not be identical. Equal entries are not always repeated. Where two headings read alike, the source gives them in different places.

Key:
Format in all cases: in vivo
[1] = tested on: Panicum maximum; test: Post-emergence herbicidal action against Panicum maximum
Method: When the observed efficacies exceed the formal sum total of the values of the tests with individual applications, they also exceed the expected value according to Colby, which is calculated using the formula below and is likewise regarded as an indication of synergism (cf. S. R. Colby; in Weeds 15 (1967) p. 20 to 22): E^C=A+B−([…])
Here: • A=efficacy of the active compound (A) in % at an application rate of a g a.i./ha; • B=efficacy of the active compound (B) in % at an application rate of b g a.i./ha; • E^C=expected value of the effect of the combination (A)+(B) in % at the combined application rate a+b g a.i./ha.
Seeds or rhizome pieces of mono- and dicotyledonous weeds are placed in sandy loam in pots, covered with soil and grown in a greenhouse under good growth conditions (temperature, air humidity, water supply). Three weeks after sowing, the test plants were treated at the three-leaf stage with the compositions according to the invention. The compositions according to the invention formulated as spray powders or as emulsion concentrates were sprayed onto the green plant parts in various dosages with an application rate of 300 to 800 l/ha of water (equivalent). After the test plants have been left to stand in the greenhouse under optimal growth conditions for about 3 to 4 weeks, the action of the preparations is scored visually in comparison to untreated controls. The compositions according to the invention also have good post-emergence herbicidal activity against a broad spectrum of economically important gramineous and broadleaf weeds.

[2] = tested on: Lamium purpureum; test: Post-emergence herbicidal action against Lamium purpureum
Summary of the method: (§1)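 Pot-grown plants, three weeks old at the three-leaf stage, received foliar sprays of various dosages. Visual assessment relative to untreated plants followed 3 to 4 weeks later.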

[3] = tested on: Amaranthus palmeri; test: Post-emergence herbicidal action against Amaranthus palmeri; conditions: for Herbicidal action: 16 DAT; for pest or weed control at […] / pest or weed control at 5 g/ha / pest or weed control at 15 g/ha: Amaranthus palmeri, post-emergence, 504 h; for pest or weed control at […]: 1.7 g of a.i./ha; for pest or weed control at 5 g/ha: 5 g of a.i./ha; for pest or weed control at 15 g/ha: 15 g of a.i./ha
Summary of the method: as §1

[4] = tested on: Bidens pilosa; test: Post-emergence herbicidal action against Bidens pilosa
Summary of the method: as §1

[5] = tested on: Setaria viridis; test: Post-emergence herbicidal action against Setaria viridis; conditions: 1.7 g of a.i./ha
Summary of the method: as §1

[6] = tested on: Sorghum halepense; test: Post-emergence herbicidal action against Sorghum halepense; conditions: 1.7 g of a.i./ha
Summary of the method: as §1

[7] = tested on: Digitaria sanguinalis; test: Post-emergence herbicidal action against Digitaria sanguinalis
Summary of the method: as §1

[8] = tested on: Matricaria inodora; test: Post-emergence herbicidal action against Matricaria inodora; conditions: for Herbicidal action in [%] 28 DAT against Matricaria inodora: post-emergence
[9] = block with (B1.14) Tembotrione, read-out: Herbicidal action 21 DAT [%] against Amaranthus palmeri
[10] = block with (B1.7) Mesotrione, read-out: Herbicidal action 21 DAT [%] against Amaranthus palmeri
[11] = read-out: Herbicidal action 21 DAT [%] against Amaranthus palmeri

C=C[C@]1(C(=O)N[C@H]2CO[C@@H](C(=O)OC)C2)CC(c2cc(F)cc(F)c2)=NO1 (relative stereo) [Compound A3, methyl rel-(2R,4R)-4-[[(5S)-3-(3,5-difluorophenyl)-5-vinyl-4H-isoxazole-5-carbonyl]amino]tetrahydrofuran-2-carboxylate]
Herbicidal action 28 DAT [%] against Panicum maximum ([1]; 100 g of a.i./ha): 82% | Herbicidal action 28 DAT against Panicum maximum ([1]; g of a.i./ha: 200, 100, 100 + 200): 82% | Herbicidal action 14 DAT against Lamium purpureum L. ([2]; 1 g of a.i./ha): 65% | Herbicidal action 28 DAT against Lamium purpureum L. ([2]; 1 g of a.i./ha): 25% | Herbicidal action in [%] 14 DAT against Lamium purpureum L. ([2]; 1 g of a.i./ha): 65% | Herbicidal action in [%] 28 DAT against Lamium purpureum L. ([2]; 1 g of a.i./ha): 25% | Herbicidal action in [%] 28 DAT against Lamium purpureum L. ([2]; 4 g of a.i./ha): 40% | Herbicidal action against Lamium purpureum L. ([2]; 14 DAT, 1 g of a.i./ha): 65% | Herbicidal action against Lamium purpureum L. ([2]; 28 DAT, 1 g of a.i./ha): 25% | Herbicidal action against Lamium purpureum L. ([2]; 28 DAT, 4 g of a.i./ha): 40% | Herbicidal action 32 DAT [%] against Lamium purpureum ([2]; 100 g of a.i./ha, post-emergence): 50% | Herbicidal action 14 DAT against Lamium purpureum L. ([2]; (Z61) post-emergence, g of a.i./ha: 1, 270, 90, 1 + 270, 1 + 90): 65% | Herbicidal action ([3]; 50 g a.i./ha): 35% | Herbicidal action ([3]; 100 g a.i./ha): 45% | pest or weed control at […] [3, 9]: 0% | pest or weed control at […] [3, 10]: 10% | pest or weed control at […] ([3]; block with (B9.10) Saflufenacil, read-out: Herbicidal action 21 DAT [%] against Amaranthus palmeri): 0% | pest or weed control at 5 g/ha [3, 9]: 10% | pest or weed control at 5 g/ha [3, 10]: 15% | pest or weed control at 5 g/ha [3, 11]: 15% | pest or weed control at 15 g/ha [3, 9]: 30% | pest or weed control at 15 g/ha [3, 11]: 30% | pest or weed control at 5 g/ha ([3]; 21 DAT, read-out: Herbicidal action 21 DAT [%] against Amaranthus palmeri): 15% | pest or weed control at […] ([3]; 21 DAT): 10% | Herbicidal action 21 DAT [%] against Bidens pilosa ([4]; 1.7 g of a.i./ha): 10% and 0% | Herbicidal action 21 DAT against Bidens pilosa ([4]; 1.7 g of a.i./ha): 10% | Herbicidal action 21 DAT [%] against Bidens pilosa ([4]; 1.7 g of a.i./ha, post-emergence, block with (B1.14) Tembotrione): 10% | Herbicidal action 21 DAT [%] against Bidens pilosa ([4]; 1.7 g of a.i./ha, post-emergence, block with (B1.7) Mesotrione): 0% | Herbicidal action 21 DAT [%] against Bidens pilosa ([4]; 5 g of a.i./ha): 10% | Herbicidal action 21 DAT against Bidens pilosa ([4]; 5 g of a.i./ha): 10% | Herbicidal action 21 DAT [%] against Bidens pilosa ([4]; 5 g of a.i./ha, post-emergence, block with (B1.14) Tembotrione): 10% | Herbicidal action 21 DAT [%] against Bidens pilosa ([4]; 5 g of a.i./ha, post-emergence, block with (B1.7) Mesotrione): 10% | Herbicidal action 21 DAT [%] against Bidens pilosa ([4]; 15 g of a.i./ha): 50% | Herbicidal action 21 DAT [%] against Bidens pilosa ([4]; 15 g of a.i./ha, post-emergence, block with (B1.7) Mesotrione): 25% | Herbicidal action ([4]; 21 DAT, 1.7 g a.i./ha): 10% | Herbicidal action ([4]; 21 DAT, 5 g a.i./ha): 10% | Herbicidal action 21 DAT [%] against Bidens pilosa ([4]; post-emergence, 21 DAT, 1.7 g of a.i./ha): 0% | Herbicidal action 21 DAT [%] against Bidens pilosa ([4]; post-emergence, 21 DAT, 5 g of a.i./ha): 10% | Herbicidal action 21 DAT [%] against Bidens pilosa ([4]; post-emergence, 21 DAT, 15 g of a.i./ha): 25% | Herbicidal action 21 DAT against Setaria viridis [5]: 70% | Herbicidal action 21 DAT [%] against Setaria viridis ([5]; post-emergence): 70% | Herbicidal action 21 DAT [%] against Sorghum halepense [6]: 40% | Herbicidal action 21 DAT against Sorghum halepense [6]: 40% | Herbicidal action 21 DAT [%] against Sorghum halepense ([6]; post-emergence): 40% | Herbicidal action 21 DAT [%] against Digitaria sanguinalis ([7]; 1.7 g of a.i./ha): 20% and 10% | Herbicidal action 21 DAT against Digitaria sanguinalis ([7]; 1.7 g of a.i./ha): 10% | Herbicidal action 21 DAT [%] against Digitaria sanguinalis ([7]; 1.7 g of a.i./ha, post-emergence): 10% | Herbicidal action 21 DAT [%] against Digitaria sanguinalis ([7]; 5 g of a.i./ha): 80% | Herbicidal action 21 DAT against Digitaria sanguinalis ([7]; 5 g of a.i./ha): 80% | Herbicidal action ([7]; 21 DAT, 1.7 g a.i./ha): 10% | Herbicidal action 37 DAT against Digitaria sanguinalis ([7]; (Z61) post-emergence, g of a.i./ha: 180, 100, 100 + 180): 94% | Herbicidal action 14 DAT against Matricaria inodora ([8]; 1 g of a.i./ha): 0% | Herbicidal action 28 DAT against Matricaria inodora ([8]; 1 g of a.i./ha): 0% | Herbicidal action in [%] 28 DAT against Matricaria inodora ([8]; 1 g of a.i./ha): 0% | Herbicidal action 14 DAT against Matricaria inodora ([8]; 4 g of a.i./ha): 30% | Herbicidal action 28 DAT against Matricaria inodora ([8]; 4 g of a.i./ha): 30% | Herbicidal action in [%] 14 DAT against Matricaria inodora ([8]; 4 g of a.i./ha): 20% | Herbicidal action in [%] 28 DAT against Matricaria inodora ([8]; 4 g of a.i./ha): 0% | Herbicidal action ([8]; 14 DAT, 1 g a.i./ha): 0% | Herbicidal action against Matricaria inodora ([8]; 14 DAT, 4 g of a.i./ha): 20% | Herbicidal action against Matricaria inodora ([8]; 14 DAT, 16 g of a.i./ha): 20% | Herbicidal action 14 DAT against Matricaria inodora ([8]; 16 g of a.i./ha): 20% | Herbicidal action 28 DAT against Matricaria inodora ([8]; 16 g of a.i./ha): 15% | Herbicidal action in [%] 14 DAT against Matricaria inodora ([8]; 16 g of a.i./ha): 20% and 40%
